Experimental data as given in patent US12422369B2, “Immunosensor” (PPB Technology Pty Ltd, priority 2019, dated 2025).
Where “and” joins values, the source holds several entries; their conditions need not be identical. Identical values can stand only once.

What was measured:
T9NB1-RLuc8 = assay: BRET^2 competitive assay for TCC with nanobody sensor T9NB1-RLuc8/TCC-4′-S—(CH2)2—CO-GFP^2; format: binding, camelid; settings: 10 nM T9NB1-RLuc8 and 10 nM TCC-4′-S—(CH2)2—CO-GFP^2, 2% DMSO/PBS, 5 minutes at 22° C.
Protocol: Instrumentation: Simultaneous dual emission BRET measurements were carried out with a CLARIOstar microplate reader (BMG LabTech). BRET^2 measurements used the BRET^2 emission filter set comprising RLuc/CLZ400a emission filter (410 nm bandpass, 80 nm) and the GFP^2 emission filter (515 nm bandpass, 30 nm). BRET^2 ratios were calculated as ratios of integrated acceptor emission channel intensity to integrated donor emission channel intensity.
BRET^2 assay: All reactions were carried out in white 96-well plates (Perkin-Elmer, Australia). A final concentration of 10 nM of T9NB1-RLuc8 and 10 nM of TCC-4′-S—(CH2)2—CO-GFP^2 were used for all assays, in a final volume of 100 μL 2% DMSO in PBS.
To construct a calibration curve, 10 nM of T9NB1-RLuc8 and 10 nM of TCC-4′-S—(CH2)2—CO-GFP^2 were incubated for 5 minutes at 22° C. with a range of different final concentrations of TCC, namely 1, 3, 6.3, 12.5, 25, 50, 100 and 200 nM, added from a stock of TCC in DMSO or DMSO only (2% final concentration in PBS). At the end of the incubation time, 1 μL of coelenterazine 400a (1 mM stock) in EtOH was added to the reaction mixture (final [CLZ400a]=10 μM) and the luminescence intensities recorded immediately. The BRET^2 ratios were calculated and are presented as a function of the concentration of TCC in FIG. 8. […]

Anti-FLAG mAb [1] = assay: Competitive BRET binding assay for FLAG peptide, antibody-12/36-RLuc8 conjugate, Fluorostar plate-reader; settings: mAb-12/36-RLuc8 50 nM, 200 nM FLAG-GFP^2, Fluorostar
Protocol: In order to determine whether the immunosensors of the present invention can be used to detect and measure the concentration of an analyte, the antibody-12/36-RLuc8 conjugate was incubated with 200 nM FLAG-GFP^2 and varying concentrations of FLAG peptide (from 256 μM to less than 0.5 nM) for 5 minutes before coelenterazine 400a was added and the BRET ratio determined using the Fluorostar plate-reader as described in Example 9. The BRET ratios were plotted against Log [FLAG] values.

Anti-FLAG mAb [2] = assay: Competitive BRET calibration for FLAG peptide, mAb-24/36-RLuc8 conjugate, Clariostar plate-reader; format: binding; settings: 5 nM mAb-24/36-RLuc8, 10 nM FLAG-GFP^2, 5 minute incubation
Protocol: A calibration was also performed using the Clariostar plate-reader (BMG) and the antibody-24/36-RLuc8 conjugate. Measurements were made in the bioluminescence mode and the dual linear variable filters were set to 410-80 (Gain: 3300) for RLuc8 emission and 515-30 (Gain: 4095) for GFP^2 emission. An integration time of 1.54 s was used. Coelenterazine 400a was prepared by adding 100 μL ethanol to a dried aliquot (0.5 mM), with 1 μL added to the final assay to give a final concentration of 5 μM. A final concentration of 5 nM of RLuc8-conjugate and 10 nM GFP^2-FLAG was used for assays. The final assay volume was 100 μL with PBS (with BSA (1 mg/ml) used to make up the volume.
To construct a standard curve using the Clariostar, 5 nM mAb-24/36-RLuc8 conjugate was added to 10 nM FLAG-GFP^2 in PBS with BSA (1 mg/mL) and the mixture incubated with unlabelled FLAG peptide (various concentrations) for 5 minutes at 28° C. Coelenterazine 400a was added and the BRET response determined. BRET ratio was calculated by dividing the GFP^2 intensity (average 0-13.86 s) by the RLuc8 intensity (average 0-13.86 s). The BRET ratios were normalised using the normalisation function in Graphpad Prism 7 for Windows, plotted against Log [FLAG] values and fitted with a Log [Agonist] vs normalized response—variable slope model.

[3] = Luciferase activity with Coelenterazine 400a; format: biochemical
Protocol: Luciferase activity: Coelenterazine 400a (Cayman Chemicals) (6-phenyl-2,8-bis(phenylmethyl)-imidazo[1,2-a]pyrazin-3(7H)-one) (1 mg) was dissolved in 10.2 mL ethanol and partitioned into 200 μL aliquots which were dried (Speedivac) and stored at −20° C. until use.
Coelenterazine 400a (50 nmol) was dissolved in 50 μL ethanol and 450 μL water was added. RLuc8 monomer (2.4 mg/mL) and RLuc8 dimer (4.8 mg/mL) were diluted in 1 mg/mL BSA in buffer. In a well of a white 96-well Optiplate (Perkin Elmer) was added TBS, PBS or 100 mM sodium phosphate pH 7.0, 2 μL luciferase enzyme (1/10 or 1/100 dilution) and 5 μL of 0.1 mM Coelenterazine 400a solution. The final volume in each well was 100 μL. The light produced was measured in a FLUOstar Optima (BMG Labtech) using luminescence optics and no filter.

In the case of `O=C(Nc1ccc(Cl)cc1)Nc1ccc(Cl)c(Cl)c1` [TCC, triclocarban], the EC50 (T9NB1-RLuc8) is reported as 17.3 nM and 17 nM.

With DYKDDDDK [FLAG peptide] the EC50 (Anti-FLAG mAb [1]) was 274 nM and the EC50 (Anti-FLAG mAb [2]) was 1.41 nM.

B1: N-His-RLuc8: N-terminal hexahistidine tagged Renilla reniformis luciferase RLuc8-LPETGG, SEQ ID NO: 5 (protein)
chain: MGHHHHHHGTENLYFQGSASKVYDPEQRKRMITGPQWWARCKQMNVLDSFINYYDSEKHAENAVIFLHGNATSSYLWRHVVPHIEPVARCIIPDLIGMGKSGKSGNGSYRLLDHYKYLTAWFELLNLPKKIIFVGHDWGAALAFHYAYEHQDRIKAIVHMESVVDVIESWDEWPDIEEDIALIKSEEGEKMVLENNFFVETVLPSKIMRKLEPEEFAAYLEPFKEKGEVRRPTLSWPREIPLVKGGKPDVVQIVRNYNAYLRASDDLPKLFIESDPGFFSNAIVEGAKKFPNTEFVKVKGLHFLQEDAPDEMGKYIKSFVERVLKNEQLPETGGAALEAS
modifications: N-His-RLuc8
In the case of B1, the “Luciferase activity, monomer versus dimer” value ([3]; Coelenterazine 400a, FLUOstar Optima, no filter) is reported as “more active than the dimeric form” and the “Luciferase activity over time” value ([3]; after Coelenterazine 400a addition, data not shown) is reported as “decreased very rapidly (over a few seconds)”.
